# Source: patent publication EP0694535A1, “Non-peptidyl tachykinin receptor antagonists” (ELI LILLY AND COMPANY, priority 1994, dated 1996)
# Key:
# human NK-2 receptor = target: T1, human NK-2 receptor (Homo sapiens, UniProt P21452); assay: NK-2 Receptor Binding Assay (CHO-hNK-2R membranes, iodohistidyl-neurokinin A); conditions: for IC50: values in parentheses, amount necessary to inhibit fifty percent of the binding of neurokinin A; for inhibition at 10 µM: inhibition of neurokinin A binding at ten micromolar, read-out: Percent Inhibition @ 10 μM
# T1 construct: expressed in transfected cells; host or cells: CHO-hNK-2R cells (CHO-derived), membrane preparation
# T1 sequence (P21452 1-398): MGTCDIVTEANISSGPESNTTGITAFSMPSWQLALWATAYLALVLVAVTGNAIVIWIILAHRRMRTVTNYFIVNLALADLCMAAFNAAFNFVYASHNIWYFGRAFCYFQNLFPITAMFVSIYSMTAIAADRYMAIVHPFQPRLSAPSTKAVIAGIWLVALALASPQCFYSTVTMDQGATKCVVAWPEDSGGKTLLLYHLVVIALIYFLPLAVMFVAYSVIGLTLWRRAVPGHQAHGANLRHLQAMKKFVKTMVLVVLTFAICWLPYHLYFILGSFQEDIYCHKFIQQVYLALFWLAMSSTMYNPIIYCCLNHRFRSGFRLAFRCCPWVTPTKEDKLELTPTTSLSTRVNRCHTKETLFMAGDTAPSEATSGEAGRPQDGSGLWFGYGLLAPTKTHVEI
# Method: The CHO-hNK-2R cells, a CHO-derived cell line transformed with the human NK-2 receptor, expressing about 400,000 such receptors per cell, were grown in 75 cm flasks or roller bottles in minimal essential medium (alpha modification) with 10% fetal bovine serum. The gene sequence of the human NK-2 receptor is given in N.P. Gerard, et al., Journal of Biological Chemistry, 265:20455-20462 (1990).
# For preparation of membranes, 30 confluent roller bottle cultures were dissociated by washing each roller bottle with 10 ml of Dulbecco's phosphate buffered saline (PBS) without calcium and magnesium, followed by addition of 10 ml of enzyme-free cell dissociation solution (PBS-based, from Specialty Media, Inc.). After an additional 15 minutes, the dissociated cells were pooled and centrifuged at 1,000 RPM for 10 minutes in a clinical centrifuge. Membranes were prepared by homogenization of the cell pellets in 300 ml 50 mM Tris buffer, pH 7.4 with a Tekmar® homogenizer for 10-15 seconds, followed by centrifugation at 12,000 RPM (20,000 x g) for 30 minutes using a Beckman JA-14® rotor. The pellets were washed once using the above procedure. and the final pellets were resuspended in 100-120 ml 50 mM Tris buffer, pH 7.4, and 4 ml aliquots stored frozen at -70 °C. The protein concentration of this preparation was 2 mg/ml.
# For the receptor binding assay, one 4-ml aliquot of the CHO-hNK-2R membrane preparation was suspended in 40 ml of assay buffer containing 50 mM Tris, pH 7.4, 3 mM manganese chloride, 0.02% bovine serum albumin (BSA) and 4 µg/ml chymostatin. A 200 µl volume of the homogenate (40 µg protein) was used per sample. The radioactive ligand was [[…]]iodohistidyl-neurokinin A (New England Nuclear, NEX-252), 2200 Ci/mmol. The ligand was prepared in assay buffer at 20 nCi per 100 µl; the final concentration in the assay was 20 pM. Non-specific binding was determined using 1 µM eledoisin. Ten concentrations of eledoisin from 0.1 to 1000 nM were used for a standard concentration-response curve.
# All samples and standards were added to the incubation in 10 µl dimethylsulfoxide (DMSO) for screening (single dose) or in 5 µl DMSO for IC₅₀ determinations. The order of additions for incubation was 190 or 195 µl assay buffer, 200 µl homogenate, 10 or 5 µl sample in DMSO, 100 µl radioactive ligand. The samples were incubated 1 hr at room temperature and then filtered on a cell harvester through filters which had been presoaked for two hours in 50 mM Tris buffer, pH 7.7, containing 0.5% BSA. The filter was washed 3 times with approximately 3 ml of cold 50 mM Tris buffer, pH 7.7. The filter circles were then punched into 12 x 75 mm polystyrene tubes and counted in a gamma counter.
# Table II, infra, provides a representative sample of the effectiveness as NK-2 receptor antagonists of many of the compounds of Formula I. The first column provides the Example number of the compound tested. The second column provides either the percent inhibition of neurokinin A binding when the compound is present in a ten micromolar concentration or the amount of compound (in micromolar amounts) necessary to inhibit fifty percent of the binding of neurokinin A. Those values which represent IC₅₀ values are designated by parentheses.
# NK-1 receptor = target: T2, NK-1 receptor (Homo sapiens, UniProt P25103); assay: NK-1 Receptor Binding Assay (competition with labeled substance P on IM9 cells); conditions: for inhibition at 10 µM: inhibition of substance P binding to the NK-1 receptor, read-out: Percent Inhibition
# T2 construct: an aliquot of IM9 cells; endogenous in cells; host or cells: IM9 cells (whole cells)
# Method: Radioreceptor binding assays were performed using a derivative of a previously published protocol. D.G. Payan, et al., Journal of Immunology, 133:3260-3265 (1984). In this assay an aliquot of IM9 cells (1 x 10⁶ cells/tube in […] medium supplemented with 10% fetal calf serum) was incubated with 20 pM […] substance P in the presence of increasing competitor concentrations for 45 minutes at 4°C.
# The IM9 cell line is a well-characterized cell line which is readily available to the public. See. e.g., Annals of the New York Academy of Science, 190: 221-234 (1972); Nature (London), 251:443-444 (1974); Proceedings of the National Academy of Sciences (USA), 71:84-88 (1974). These cells were routinely cultured in RPMI 1640 supplemented with 50 µg/ml gentamicin sulfate and 10% fetal calf serum.
# The reaction was terminated by filtration through a glass fiber filter harvesting system using filters previously soaked for 20 minutes in 0.1% polyethylenimine. Specific binding of labeled substance P was determined in the presence of 20 nM unlabeled ligand.
# Column 1 provides the example number of the test antagonist compound. The next columns detail the substitution patterns of the test compound.
# T2 sequence (P25103 whole entry): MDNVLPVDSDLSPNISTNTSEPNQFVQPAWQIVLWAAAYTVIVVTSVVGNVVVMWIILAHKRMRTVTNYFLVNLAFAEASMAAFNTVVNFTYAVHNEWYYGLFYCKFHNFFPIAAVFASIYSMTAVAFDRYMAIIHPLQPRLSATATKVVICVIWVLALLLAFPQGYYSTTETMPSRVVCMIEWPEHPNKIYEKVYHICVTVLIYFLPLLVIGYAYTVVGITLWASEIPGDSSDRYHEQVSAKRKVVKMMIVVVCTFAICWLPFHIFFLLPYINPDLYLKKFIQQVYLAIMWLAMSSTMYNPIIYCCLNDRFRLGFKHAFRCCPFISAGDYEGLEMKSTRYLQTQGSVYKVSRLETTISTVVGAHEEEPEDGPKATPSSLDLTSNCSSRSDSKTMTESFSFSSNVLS
SMILES,inhibition at 10 µM (human NK-2 receptor),other results
"Cc1cccc(-c2nc3ccc(OCCCN4CCOCC4)cc3n2Cc2ccccc2)c1 [Example 99, 1-benzyl-2-(3-methylphenyl)-6-[3-(morpholin-4-yl)propoxy)benzimidazole]",–,IC50 (human NK-2 receptor): 3.08 µM
"Cc1cccc(-c2nc3ccc(OCCCN4CCCC4)cc3n2Cc2ccccc2)c1 [Example 100, 1-benzyl-2-(3-methylphenyl)-6-[3-(pyrrolidin-1-yl)propoxy)benzimidazole]",–,IC50 (human NK-2 receptor): 6.8 µM
"COc1cc(-c2nc3ccc(O)cc3n2Cc2ccccc2C(F)(F)F)cc(OC)c1OC [Example 104, 1-(2-trifluoromethylbenzyl)-2-(3,4,5-trimethoxyphenyl)-6-hydroxybenzimidazole]",39.3%,–
"COc1ccc(Cn2c(-c3cc(OC)c(OC)c(OC)c3)nc3ccccc32)cc1 [Example 46, 1-(4-methoxybenzyl)-2-(3,4,5-trimethoxyphenyl)-benzimidazole]",-1.5%,inhibition at 10 µM (NK-1 receptor): 56%
"COc1cc(-c2nc3ccccc3n2Cc2ccc(Cl)cc2)cc(OC)c1OC [Example 42, 1-(4-chlorobenzyl)-2-(3,4,5-trimethoxyphenyl)-benzimidazole]",2.6%,inhibition at 10 µM (NK-1 receptor): 61%
"Cc1cccc(-c2nc3ccc(OCCN4CCOCC4)cc3n2Cc2ccccc2)c1 [Example 87, 1-benzyl-2-(3-methylphenyl)-6-[2-(4-morpholinyl)ethoxy]benzimidazole]",81.9%,–
"COc1cc(-c2nc3ccc(OCCN4CCCCC4)cc3n2Cc2ccccc2C(F)(F)F)cc(OC)c1OC [Example 105, 1-(2-trifluoromethylbenzyl)-2-(3,4,5-trimethoxyphenyl)-6-[2-(piperidin-1-yl)ethoxy]benzimidazole]",–,IC50 (human NK-2 receptor): 5.17 µM
"Cc1cccc(-c2nc3ccccc3n2Cc2ccccc2Br)c1 [Example 60, 1-(2-Bromobenzyl)-2-(3-methylphenyl)benzimidazole]",62.6%,inhibition at 10 µM (NK-1 receptor): 72%
"COc1cc(-c2nc3ccc(OCCCl)cc3n2Cc2ccccc2)cc(OC)c1OC [Example 76, 1-benzyl-2-(3,4,5-trimethoxyphenyl)-6-(2-chloroethoxy)benzimidazole]",–,"IC50 (human NK-2 receptor): 7.48 µM; IC50 (NK-1 receptor; concentration which inhibits fifty percent of the binding of substance P, 20 pM labeled substance P, 45 minutes at 4°C): 0.329 µM"
"Cc1cccc(-c2nc3ccc(OCCN4CCCC4)cc3n2Cc2ccccc2)c1 [Example 86, 1-benzyl-2-(3-methylphenyl)-6-[2-(1-pyrrolidinyl)ethoxy]benzimidazole]",48.5%,–
"Cc1cccc(-c2nc3ccccc3n2Cc2c(Cl)cccc2Cl)c1 [Example 62, 1-(2,6-Dichlorobenzyl)-2-(3-methylphenyl)benzimidazole]",23.1%,inhibition at 10 µM (NK-1 receptor): 31%
"CCN(CC)CCOc1ccc2nc(-c3cccc(C)c3)n(Cc3ccccc3)c2c1 [Example 93, 1-benzyl-2-(3-methylphenyl)-6-[2-(N,N-diethylamino)ethoxy]benzimidazole]",42%,–
"Cc1cccc(-c2nc3ccc(OCCCN4CCCCC4)cc3n2Cc2ccccc2)c1 [Example 95, 1-benzyl-2-(3-methylphenyl)-6-[3-(piperdin-1-yl)propoxy]benzimidazole]",80.4%,–
"CCN(CCOc1ccc2nc(-c3cccc(C)c3)n(Cc3ccccc3)c2c1)c1ccccc1 [Example 90, 1-benzyl-2-(3-methylphenyl)-6-[2-(N-phenyl-N-ethylamino)ethoxy]benzimidazole]",34%,–
"Cc1cccc(-c2nc3ccc(OCCCN(C)C)cc3n2Cc2ccccc2)c1 [Example 94, 1-benzyl-2-(3-methylphenyl)-6-[3-(N,N-dimethylamino)propoxy]benzimidazole]",38.4%,–
"Cc1cccc(-c2nc3ccc(OCCCN4CCCCCC4)cc3n2Cc2ccccc2)c1 [Example 101, 1-benzyl-2-(3-methylphenyl)-6-[3-(hexamethyleneimin-1-yl)propoxy)benzimidazole]",–,IC50 (human NK-2 receptor): 1.04 µM
"COc1cc(-c2nc3ccc(OCCN4CCCCC4)cc3n2Cc2ccccc2Br)cc(OC)c1OC [Example 115, 1-(2-bromobenzyl)-2-(3,4,5-trimethoxyphenyl)-6-[2-(piperidin-1-yl)ethoxy]benzimidazole]",–,IC50 (human NK-2 receptor): 4.29 µM
"Cc1cccc(-c2nc3ccc(OCC(C)N(C)C)cc3n2Cc2ccccc2)c1 (stereo not shown) [Example 96, 1-benzyl-2-(3-methylphenyl)-6-[2-(N,N-dimethylamino)propoxy]-benzimidazole]",34%,–
"Cc1cccc(-c2nc3ccc(OCCN(Cc4ccccc4)Cc4ccccc4)cc3n2Cc2ccccc2)c1 [Example 89, 1-benzyl-2-(3-methylphenyl)-6-[2-(N,N-dibenzylamino)ethoxy]benzimidazole]",24.5%,–
"Cc1cccc(-c2nc3ccc(OCCCCl)cc3n2Cc2ccccc2)c1 [Example 97, 1-benzyl-2-(3-methylphenyl)-6-(3-chloropropoxy)-benzimidazole]",64.4%,–
"COc1cc(-c2nc3ccc(O)cc3n2Cc2ccccc2Br)cc(OC)c1OC [Example 114, 1-(2-bromobenzyl)-2-(3,4,5-trimethoxyphenyl)-6-hydroxybenzimidazole]",57.4%,–
"Cc1cccc(-c2nc3ccc(OCCN(C(C)C)C(C)C)cc3n2Cc2ccccc2)c1 [Example 91, 1-benzyl-2-(3-methylphenyl)-6-[2-(N,N-isopropylamino)ethoxy]benzimidazole]",60.7%,–
"Cc1cccc(-c2nc3ccc(OCCCl)cc3n2Cc2ccccc2)c1 [Example 98, 1-benzyl-2-(3-methylphenyl)-6-(2-chloroethoxy)-benzimidazole]",–,IC50 (human NK-2 receptor): 7.24 µM
"Cc1cccc(-c2nc3ccc(O)cc3n2Cc2ccccc2C(F)(F)F)c1 [Example 120, 1-(2-trifluoromethylbenzyl)-2-(3-methylphenyl)-6-hydroxybenzimidazole]",55.9%,–
"Cc1cccc(-c2nc3ccc(OCCN(C)C)cc3n2Cc2ccccc2)c1 [Example 88, 1-benzyl-2-(3-methylphenyl)-6-[2-(N,N-dimethylamino)ethoxy]benzimidazole]",31.6%,–
"Cc1cccc(-c2nc3ccc(OCCN4CCCCCC4)cc3n2Cc2ccccc2)c1 [Example 92, 1-benzyl-2-(3-methylphenyl)-6-[2-(hexamethyleneimin-1-yl)ethoxy]benzimidazole]",82.5%,–
